Where “and” joins values, the source holds several entries; their conditions need not be identical. Equal entries are not always repeated.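 Results reflect a 48-hour exposure of cells in 96-well plates to compound at five concentrations. GI50: concentration for 50% inhibition of growth. TGI is the concentration that stops growth completely.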

The text below walks through data of PubChem BioAssay (NCI).

What all share (assay): NCI tumour cell line growth inhibition, 48 h
The subject of test [1] is HOP-62 NSCLC.
For test [2], the system named is LOX IMVI melanoma.
Test [3] concerns MALME-3M melanoma.
Test [4] relates to NCI-H226 lung.
Test [5] concerns NCI-H460 lung.
For test [6], the system named is OVCAR-3 ovarian.
Test [7] has as its system OVCAR-8 ovarian.
Test [8] concerns RXF 393 renal.
The test system of test [9] is SF-539 CNS.
Test [10] deals with TK-10 renal.

Take `OCC1CC2CC1C1(C2)OCCO1` (centres undefined): the TGI in [1], in test [2], in [3], in test [4], in [5] and in [6] was above 100 µM throughout. For the same molecule, the TGI in [7], in [8], in test [9] and in [10] was above 100 µM throughout.

Consider `CC1=C[C@H]2C[C@@]3(C)O[C@@H]([C@]4(C)CC[C@H]([C@@H](C)C(=O)O)OO4)CC3C(C)(C)[C@H]2CC1` (some centres undefined), for which the TGI in [1] was 3.94 µM; in test [2] it was 0.296 µM; in [3], 2.22 µM; in test [4], 3.82 µM; in [5], 2.74 µM; in [6], 3.29 µM. For the same molecule, the TGI in test [7] was 3.54 µM; in test [8], 2.53 µM; in test [9] it was 3.57 µM; in [10], 4.28 µM.

Turning to `C[C@H]1CC(=O)[C@@]2(O)C#C/C=C\C#C[C@@H]3Nc4c(cc(O)c5c4C(=O)c4ccccc4C5=O)[C@]24O[C@]314`, the GI50 was 0.0025 µM in [1]; 0.0025 µM in test [2]; 0.0025 µM in test [4]; 0.0025 µM in test [5]; 0.00468 µM in test [7]; 0.0373 µM in [8]. The GI50 in [9] is below 0.001 µM; in [10], 0.492 µM. The TGI was 0.00698 µM and 0.00625 µM in test [1]; 0.18 µM and 0.326 µM in [2]; 0.518 µM in [3]; above 25 µM in test [6]; 0.124 µM and 0.258 µM in test [7]; 0.0684 µM and 0.242 µM in [8]. The TGI in test [9] is 0.0219 µM and 0.0281 µM.

Turning to `O=C(N/N=C\c1cc(Cl)ccc1O)N/N=C/c1cc(Cl)ccc1O`, the GI50 in [1] is 2.49 µM; in test [2], 2.14 µM; in test [3], 34.3 µM; in test [4], above 100 µM; in test [5], 0.518 µM; in test [6], 2.12 µM. Further, the GI50 in [7] was 1.77 µM; in test [8] it was above 100 µM; in test [9] it was 2.32 µM; in [10], above 100 µM. The TGI in test [1], in test [2], in test [3], in test [4], in test [5] and in test [6] was above 100 µM throughout. The TGI in [7], in test [8], in test [9] and in [10] was above 100 µM in each case.

On to `C[C@@H]1CC[C@H]2C(CN3CCN(CC4=C(C(F)(F)F)O[C@@H]5O[C@@]6(C)CC[C@H]7[C@H](C)CC[C@@H]4[C@@]57OO6)CC3)=C(C(F)(F)F)O[C@@H]3O[C@@]4(C)CC[C@@H]1[C@]32OO4`, for which the TGI in [1] was above 46.9 µM; in test [2], above 100 µM; in test [3], above 25.8 µM; in test [4], above 100 µM; in test [5], above 100 µM; in test [6], above 24.9 µM. Further, the TGI is above 100 µM in [7], above 54.3 µM in [8], above 100 µM in test [9] and 99.7 µM in [10]. The GI50 is 2.3 µM in test [2]; 2.23 µM in [3]; 2.81 µM in test [4]; 3.14 µM in [5]; 1.84 µM in test [6]; 2.29 µM in test [7]. In addition, the GI50 in [8] is 1.05 µM; in test [9] it was 0.567 µM; in test [10], 4.2 µM.

For `Fc1ccc(-c2c(-c3ccncc3)n(CCN3CCOCC3)c3cccnc23)cc1`, the GI50 in test [1], in test [2], in test [3], in test [4], in test [5] and in test [6] was above 25 µM throughout. The GI50 in test [7], in test [8], in test [9] and in test [10] was above 25 µM throughout. The TGI in [1], in test [2], in [3], in [4], in [5] and in test [6] was above 25 µM throughout. In addition, the TGI in [7], in [8], in test [9] and in test [10] was above 25 µM throughout.

On to `Cc1ccc(C)c(NC(=O)CCc2n[nH]c(=S)o2)c1`, for which the TGI in [1], in [2], in test [3], in [4], in test [5] and in [6] was above 100 µM throughout. Also, the TGI in test [7], in test [8], in test [9] and in test [10] was above 100 µM in each case.

Turning to `C1CCN2CC34CC(CC5CCCN(C6CCCC3N6)C54)C2C1` (centres undefined), the TGI in test [1], in test [2], in test [3], in test [4], in test [5] and in test [6] was above 100 µM each time. The TGI in [7], in [8], in test [9] and in test [10] was above 100 µM in each case.

Regarding `COCCOCCOCCOCCOc1ccc2c(c1)C(=O)c1nc3ncccc3c(=O)n1-2`, the GI50 in test [1] was 0.744 µM; in test [2], 0.39 µM; in test [3], 0.155 µM; in test [4], 1.65 µM; in [5] it was 0.4 µM; in test [6], 0.969 µM. The GI50 in [7] is 1.57 µM; in test [8], 2.65 µM; in test [9], 0.551 µM; in test [10], 1.29 µM. Besides, the TGI in test [1] is 2.18 µM; in test [2] it was 1.62 µM; in [3], 0.339 µM; in [4], 3.31 µM; in test [5], 1.39 µM; in test [6] it was 3.39 µM. The TGI in test [7] worked out at 6.89 µM; in [8], 9.26 µM; in test [9] it was 1.71 µM; in test [10], 2.69 µM.

In the case of `Cc1cc(Br)cc(C)c1NC(=O)C(=O)C(C(=O)c1ccc(Cl)c(Cl)c1)C1OC(=O)c2ccccc21` (centres undefined), the TGI in test [1], in [2], in test [3], in test [4], in [5] and in [6] was above 100 µM in each case. Also, the TGI in test [7], in test [8], in test [9] and in test [10] was above 100 µM each time.

`CC(C)=CCC[C@](C)(O)[C@H]1CC[C@]2(C)[C@@H]1CC[C@@H]1[C@@]3(C)CC[C@H](OC(=O)CCC(=O)O)C(C)(C)[C@@H]3CC[C@]12C`: the GI50 in test [1] is 37.6 µM; in [2] it was 16.6 µM; in [3], 16.8 µM; in [4] it was 16.7 µM; in test [5], 36.4 µM; in [6], 15.9 µM. The GI50 is 35.5 µM in test [7], 17.4 µM in test [8], 19.7 µM in test [9] and 87.8 µM in [10]. For the same molecule, the TGI was above 100 µM in test [1]; 30.7 µM in [2]; 38.6 µM in test [3]; 40.3 µM in [4]; above 100 µM in test [5]; 30.9 µM in test [6]. Moreover, the TGI in test [7] was above 100 µM; in [8], 85 µM; in test [9], 57.8 µM; in test [10], above 100 µM.

Turning to `COc1cc(C=NCC(=O)CSC(c2ccccc2)c2ccccc2)cc(OC)c1OC`, the GI50 in test [1] was 33.2 µM; in test [2] it was 23.1 µM; in [3], 16.8 µM; in test [4] it was 17.9 µM; in test [5] it was 13 µM; in [6], 13.3 µM. In addition, the GI50 in test [7] is 19.2 µM; in [8], 23.7 µM; in test [9] it was 33.1 µM; in [10] it was 14.5 µM. Moreover, the TGI in test [1] was above 100 µM; in test [2] it was above 100 µM; in test [3] it was 61.7 µM; in test [4], above 100 µM; in [5], above 100 µM; in test [6], above 100 µM. Further, the TGI in test [7] is above 100 µM; in test [8], 96.4 µM; in [9], above 100 µM; in [10], 79.1 µM.

On to `Cc1cc(I)cc(CN(C)CCCCN2CCCC2)c1O`, for which the GI50 in test [1] is 16.4 µM; in test [2], 15.5 µM; in test [3], 19.7 µM; in test [4], 30 µM; in test [5], 17.3 µM; in test [6], 33.5 µM. The GI50 was 37.2 µM in test [7], 11.8 µM in test [8], 14.7 µM in test [9] and 20.8 µM in test [10]. The TGI in test [1] is 33.9 µM; in [2], 30.8 µM; in test [3] it was 36.1 µM; in test [4], above 100 µM; in [5], 45.9 µM; in [6] it was above 100 µM. Further, the TGI was above 100 µM in test [7], 31.8 µM in test [8], 28.7 µM in test [9] and 50.7 µM in test [10].
